One assay has as its system Rattus norvegicus. The assay can be described thus: In vivo anticonvulsant activity in rats using maximal electroshock (MES) assay; value ranges from 35-50 mg/kg. It is filed as functional.
Assay [1] has as its system Mus musculus. The assay can be described thus: In vivo anticonvulsant activity in mice using maximal electroshock (MES) assay; value ranges from 35-50 mg/kg. It is filed as functional. (In general: The maximal electroshock test induces tonic seizures with an electrical stimulus.)
Assay [2] addresses Glutamate receptor ionotropic, AMPA (Rattus norvegicus) (UniProt P19491+P19492+P19493+P19490). The assay can be described thus: Inhibition of KA induced currents associated with activation of the AMPA subtype of glutamate receptors in cerebellar neurons at a concentration of 10 uM. It is filed as protein-complex assay.
The species named for assay [3] is Mus musculus. The assay can be described thus: Reduced sedation using rotarod test in mouse. The assay is classed as functional.
The test system of assay [4] is Mus musculus. Put plainly: In vivo anticonvulsant activity in mice using maximal electroshock (MES) assay. It is filed as functional.

A word on the ED50: it is the dose that gives a 50% effect, or the effect in half of the subjects. A higher ED50 goes with a need for a large dose. Broadly, the inhibition is the share of the control response that was lost under treatment.

Consider `CCCCNC(=O)N1N=C(c2ccc(N)cc2)c2cc3c(cc2C1C)OCO3` (stereo unspecified), for which the ED50 with Rattus norvegicus and in the assay on Mus musculus [1] was 35 mg/kg in each case. This compound showed an inhibition in assay [2] of 62%.

`CCCNC(=O)N1N=C(c2ccc(N)cc2)c2cc(F)ccc2C1C` (stereo unspecified) gave an inhibition in assay [2] of 55%.

In assay [2], `CCCCNC(=O)N1N=C(c2ccc(N)cc2)c2cc(OC)ccc2C1C` (stereo unspecified) returned an inhibition of 50%.

Regarding `CCCNC(=O)N1N=C(c2ccc(N)cc2)c2cc3c(cc2C1C)OCO3` (stereo unspecified), the ED50 with Rattus norvegicus and in the assay with Mus musculus [1] was 35 mg/kg throughout. Moreover, the inhibition in assay [2] stood at 58%.

As to `CCCNC(=O)N1N=C(c2ccc(N)cc2)c2cc(OC)ccc2C1C` (stereo unspecified), the ED50 in the assay filed under Mus musculus [3] was found to be 150 mg/kg; with Mus musculus [4], 52 mg/kg. This compound showed an inhibition in assay [2] of 52%.

For the origin of these results see ChEMBL document CHEMBL1132505, “Allosteric modulators of the AMPA receptor: novel 6-substituted dihydrophthalazines” (1999).
